The results in this text go back to publication PMC10724190, “Phytochemical screening and biological evaluation of Greek sage (Salvia fruticosa Mill.) extracts” (Scientific Reports, 2023).

In assay [1] the target is microbial XO (xanthine oxidase). The assay is described as follows: Xanthine oxidase inhibitory activity, HPLC-PAD monitoring of uric acid formation. Format: biochemical. The note with it: for IC50, mass of standard or dry weight of sample capable of reducing XO activity to 50%: 15 min preincubation, 60 min at 25 °C, xanthine substrate; for IC50: read-out: IC50 of XO inhibition as concentration. The method, then:
The transformation of xanthine (substrate) to uric acid (product) by XO with or without the presence of tested samples was monitored with the use of HPLC-PAD at 285 nm (Fig. 3a). The enzyme activity was calculated as the percentage of the uric acid peak area formed in the presence of the tested sample compared to the control without the addition of the sample (Fig. 3b). The inhibition of the XO enzyme was expressed as an IC50 value, meaning the mass of standard or dry weight of sample (μg) capable of reducing enzyme activity to 50% (Fig. 3b,c).
The ability of – caffeic acid, carnosic acid, carnosol, rosmarinic acid, salvianolic acid B and scutellarin, as well as S. fruticosa extracts – to inhibit XO was determined. The stock solutions of xanthine (substrate) and uric acid (product) (1.5 mM) were prepared in an NaOH aqueous solution (1 M). The working solutions of these compounds (150 μM) were prepared by dilution of stock solutions with a phosphate buffer (10 mM, pH 7.7). An enzyme solution with an activity of approximately 0.5 U/mL was prepared in the same phosphate buffer. The same buffer was also used to dilute stock solutions of phytochemical standards and S. fruticosa extracts. The diluted samples with different concentrations of standard or plant extract (85 µL) were mixed with an XO solution (30 µL) and preincubated for 15 min at 25 °C, followed by the addition of 60 µL of a 150 µM xanthine solution (substrate). The mixtures were incubated for 60 min at 25 °C, then 25 µL of HCl solution (1 M) was added to stop the enzymatic reaction.
The samples were analyzed using an HPLC-PAD system (1200 series, Agilent Technologies, Wilmington, DE, USA) equipped with a Kinetex® column (150 × 4.6 mm, 5 µm, Phenomenex). A two-component mobile phase was used, in which component A was water acidified with formic acid (1%) and component B was methanol. The mobile phase was pumped at flow rate of 1 mL/min according to the gradient elution program: 0 min – 100% A, 8 min – 18% B, 12 min – 80% B, 18 min – 100% B and finally, the initial conditions were held for 5 min as a re-equilibration step. The injection volume was 30 μL. The inhibition of the XO enzyme was expressed as an IC50 value, meaning the mass of standard or dry weight of the sample (μg) that could reduce enzyme activity to 50%. Enzyme activity was calculated as the percentage of the uric acid peak area (RT 3.1 min) that was formed in the presence of extracts compared to the control sample without the addition of extracts.

A short description of assay [2]: Total antioxidant activity, ABTS, DPPH and F–C tests taken together. The note with it: reference antioxidant trolox. The method, then: The presented study compared the results of the three most popular spectrophotometric tests using ABTS, DPPH and Folin–Ciocalteu (F–C) reagents. ABTS and DPPH assays are used widely to determine free radical scavenging activity of extracts, as are pure compounds. For S. fruticosa extracts, the calculated antioxidant activity describes the number of ABTS or DPPH molecules reduced by antioxidants derived from 1 g of dried material after 10 min of reaction. These values were calculated in the linear range of the method and expressed as the slope of the line describing the relationship between the number of reduced millimoles of oxidants and various amounts of tested samples – as grams of dry matter in reaction mixtures (Fig. 2b).
The study also includes the method with the Folin–Ciocalteu reagent. It consists in the transfer of electrons in an alkaline environment from compounds with active hydroxyl groups to phosphomolybdic phosphotungstic acid complexes. The reducing capacity in this case was expressed as the number of millimoles of gallic acid equivalents, that formed blue complex and were derived from 1 g of dry matter of the plant. […]
The antioxidant activity of – caffeic acid, carnosic acid, carnosol, rosmarinic acid, salvianolic acid B, scutellarin and S. fruticosa extracts – was determined by spectrophotometric tests using ABTS, DPPH and Folin–Ciocalteu (F–C) reagents. […] For tests with radicals, the data were used to generate a plot of linear dependence between the different content of tested standards or S. fruticosa samples calculated as gram of dry weight present in the reaction mixtures and the number of scavenged millimoles of ABTS or DPPH radical. […] For the F–C test the results were calculated using the calibration curve of gallic acid. The antioxidant activity of the tested samples was expressed as a slope of the line that represents the relationship between the mass of standards or plant material [g] and amount of gallic acid equivalents [mmol] present in reaction mixtures after 60 min.

As to `O=C(O)/C=C/c1ccc(O)c(O)c1` [Caffeic acid], in assay [1], the “IC50, mass of standard or dry weight of sample capable of reducing XO activity to 50%” value stood at 0.1 µg and the IC50 is 2.8 µM. Also, in assay [2], the “Antioxidant activity compared with trolox” value is “more efficient than trolox”.
Consider Salvianolic acid B, for which the “Antioxidant activity compared with trolox” value in assay [2] is “more efficient than trolox”.
As for `O=C(/C=C/c1ccc(O)c(O)c1)O[C@H](Cc1ccc(O)c(O)c1)C(=O)O` [rosmarinic acid, Rosmarinic acid], the IC50 in assay [1] is 43.8 µM. Besides, in assay [2], the “Antioxidant activity compared with trolox” value is on record as “more efficient than trolox”.
Consider `Oc1ncnc2[nH]ncc12` [allopurinol], for which, in assay [1], the “IC50, mass of standard or dry weight of sample capable of reducing XO activity to 50%” value came out at 0.15 µg and the IC50 worked out at 5.5 µM.
